ChEMBL document CHEMBL4373704, “Mucosal Vaccination with a Self-Adjuvanted Lipopeptide Is Immunogenic and Protective against Mycobacterium tuberculosis” (J Med Chem, 2019)
Calls of active or inactive are those of the source. No cut-off for these calls is given here.

Assays:
[1] = organism: Mus musculus; experiment: Induction of antigen-specific immunogenicity in C57BL/6 mouse assessed as induction of pulmonary CD4+ T-lymphocyte responses by measuring spleen ESAT6-specific CD4+ T-lymphocytes producing IL-2 at 14.2 ug, in measured 3 weeks after the final vaccination by immunostaining and flow cytometry; format: functional, organism-based
[2] = organism: Mus musculus; experiment: Induction of antigen-specific immunogenicity in C57BL/6 mouse assessed as induction of pulmonary CD4+ T-lymphocyte responses by measuring lung ESAT6-specific CD4+ T-lymphocytes producing IL-2 at 14.2 ug, in measured 3 weeks after the final vaccination by immunostaining and flow cytometry; format: functional, organism-based
[3] = system: Mus musculus; experiment: Induction of antigen-specific immunogenicity in C57BL/6 mouse assessed as induction of pulmonary CD4+ T-lymphocyte responses by measuring spleen ESAT6-specific CD4+ T-lymphocytes producing TNFalpha at 56.8 ug, sc measured 3 weeks after the final vaccination by immunostaining and flow cytometry; format: functional, organism-based
[4] = organism: Mus musculus; experiment: Induction of antigen-specific immunogenicity in C57BL/6 mouse assessed as induction of pulmonary CD4+ T-lymphocyte responses by measuring lung ESAT6-specific CD4+ T-lymphocytes producing TNFalpha at 14.2 ug, in measured 3 weeks after the final vaccination by immunostaining and flow cytometry; format: functional, organism-based
[5] = organism: Mus musculus; experiment: Induction of antigen-specific immunogenicity in C57BL/6 mouse assessed as induction of pulmonary CD4+ T-lymphocyte responses by measuring lung ESAT6-specific CD4+ T-lymphocytes producing INFNgamma at 14.2 ug, in measured 3 weeks after the final vaccination by immunostaining and flow cytometry; format: functional, organism-based
[6] = system: Mus musculus; experiment: Induction of antigen-specific immunogenicity in C57BL/6 mouse assessed as induction of pulmonary CD4+ T-lymphocyte responses by measuring lung ESAT6-specific CD4+ T-lymphocytes producing TNFalpha at 56.8 ug, sc measured 3 weeks after the final vaccination by immunostaining and flow cytometry; format: functional, organism-based
[7] = system: Mus musculus; experiment: Induction of antigen-specific immunogenicity in C57BL/6 mouse assessed as induction of pulmonary CD4+ T-lymphocyte responses by measuring spleen ESAT6-specific CD4+ T-lymphocytes producing IFNgamma at 56.8 ug, sc measured 3 weeks after the final vaccination by immunostaining and flow cytometry; format: functional, organism-based
[8] = system: Mus musculus; experiment: Induction of antigen-specific immunogenicity in C57BL/6 mouse assessed as induction of pulmonary CD4+ T-lymphocyte responses by measuring lung ESAT6-specific CD4+ T-lymphocytes producing IL-17 at 56.8 ug, sc measured 3 weeks after the final vaccination by immunostaining and flow cytometry; format: functional, organism-based
[9] = organism: Mus musculus; experiment: Induction of antigen-specific immunogenicity in C57BL/6 mouse assessed as induction of pulmonary CD4+ T-lymphocyte responses by measuring spleen ESAT6-specific CD4+ T-lymphocytes producing TNFalpha at 14.2 ug, in measured 3 weeks after the final vaccination by immunostaining and flow cytometry; format: functional, organism-based
[10] = system: Mus musculus; experiment: Induction of antigen-specific immunogenicity in C57BL/6 mouse assessed as induction of pulmonary CD4+ T-lymphocyte responses by measuring spleen ESAT6-specific CD4+ T-lymphocytes producing IL-2 at 56.8 ug, sc measured 3 weeks after the final vaccination by immunostaining and flow cytometry; format: functional, organism-based
[11] = organism: Mus musculus; experiment: Induction of antigen-specific immunogenicity in C57BL/6 mouse assessed as induction of pulmonary CD4+ T-lymphocyte responses by measuring spleen ESAT6-specific CD4+ T-lymphocytes producing IFNgamma at 14.2 ug, in measured 3 weeks after the final vaccination by immunostaining and flow cytometry; format: functional, organism-based
[12] = system: Mus musculus; experiment: Induction of antigen-specific immunogenicity in C57BL/6 mouse assessed as induction of pulmonary CD4+ T-lymphocyte responses by measuring lung ESAT6-specific CD4+ T-lymphocytes producing IFNgamma at 56.8 ug, sc measured 3 weeks after the final vaccination by immunostaining and flow cytometry; format: functional, organism-based
[13] = target: Toll-like receptor 2 (Homo sapiens) (UniProt O60603); experiment: Activation of YFP-tagged TLR2 (unknown origin) expressed in HEK293 cells assessed as induction of IL8 secretion at 33.5 ug/mL incubated for 16 to 18 hrs by ELISA; format: cell-based
Toll-like receptor 2 (Homo sapiens), sequence (O60603 whole entry): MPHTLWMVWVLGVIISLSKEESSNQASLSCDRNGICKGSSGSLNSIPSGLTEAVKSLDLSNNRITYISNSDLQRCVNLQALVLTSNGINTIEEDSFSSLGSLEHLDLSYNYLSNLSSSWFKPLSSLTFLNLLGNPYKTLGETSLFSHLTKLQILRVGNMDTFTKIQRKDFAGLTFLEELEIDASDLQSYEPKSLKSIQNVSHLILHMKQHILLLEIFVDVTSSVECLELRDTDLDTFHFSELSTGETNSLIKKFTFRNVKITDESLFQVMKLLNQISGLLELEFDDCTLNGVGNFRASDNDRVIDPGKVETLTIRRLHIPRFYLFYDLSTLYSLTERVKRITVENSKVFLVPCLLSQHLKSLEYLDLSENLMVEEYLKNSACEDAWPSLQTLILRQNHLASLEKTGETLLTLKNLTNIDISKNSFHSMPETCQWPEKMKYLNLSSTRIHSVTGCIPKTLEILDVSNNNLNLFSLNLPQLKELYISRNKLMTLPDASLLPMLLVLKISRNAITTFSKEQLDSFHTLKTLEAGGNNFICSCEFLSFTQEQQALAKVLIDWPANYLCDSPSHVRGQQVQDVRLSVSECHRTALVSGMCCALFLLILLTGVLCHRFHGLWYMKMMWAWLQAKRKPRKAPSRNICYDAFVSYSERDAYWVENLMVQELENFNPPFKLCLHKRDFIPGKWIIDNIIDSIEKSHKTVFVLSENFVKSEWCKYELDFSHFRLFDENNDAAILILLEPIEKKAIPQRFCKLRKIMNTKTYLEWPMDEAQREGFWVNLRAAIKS

[14] = system: Mus musculus; experiment: Induction of antigen-specific immunogenicity in C57BL/6 mouse assessed as induction of pulmonary CD4+ T-lymphocyte responses by measuring lung ESAT6-specific CD4+ T-lymphocytes producing IL-2 at 56.8 ug, sc measured 3 weeks after the final vaccination by immunostaining and flow cytometry; format: functional, organism-based
[15] = system: Mus musculus; experiment: Induction of antigen-specific immunogenicity in C57BL/6 mouse assessed as induction of pulmonary CD4+ T-lymphocyte responses by measuring spleen ESAT6-specific CD4+ T-lymphocytes producing IL-17 at 56.8 ug, sc measured 3 weeks after the final vaccination by immunostaining and flow cytometry; format: functional, organism-based
[16] = organism: Mus musculus; experiment: Induction of antigen-specific immunogenicity in C57BL/6 mouse assessed as induction of pulmonary CD4+ T-lymphocyte responses by measuring lung ESAT6-specific CD4+ T-lymphocytes producing IL-17 at 14.2 ug, in measured 3 weeks after the final vaccination by immunostaining and flow cytometry; format: functional, organism-based
[17] = organism: Mus musculus; experiment: Induction of antigen-specific immunogenicity in C57BL/6 mouse assessed as induction of pulmonary CD4+ T-lymphocyte responses by measuring spleen ESAT6-specific CD4+ T-lymphocytes producing IL-17 at 14.2 ug, in measured 3 weeks after the final vaccination by immunostaining and flow cytometry; format: functional, organism-based
[18] = organism: Mus musculus; experiment: Induction of antigen-specific immunogenicity in C57BL/6 mouse assessed as induction of pulmonary CD4+ T-lymphocyte responses by measuring lung ESAT6-specific CD8+ T-lymphocytes producing TNFalpha at 10 ug, in measured 3 weeks after the final vaccination by immunostaining and flow cytometry; format: functional, organism-based
[19] = system: Mus musculus; experiment: Induction of antigen-specific immunogenicity in C57BL/6 mouse assessed as induction of pulmonary CD4+ T-lymphocyte responses by measuring spleen ESAT6-specific CD8+ T-lymphocytes producing IFNgamma at 10 ug, sc measured 3 weeks after the final vaccination by immunostaining and flow cytometry; format: functional, organism-based
[20] = organism: Mus musculus; experiment: Induction of antigen-specific immunogenicity in C57BL/6 mouse assessed as induction of pulmonary CD4+ T-lymphocyte responses by measuring lung ESAT6-specific CD8+ T-lymphocytes producing IL-2 at 10 ug, in measured 3 weeks after the final vaccination by immunostaining and flow cytometry; format: functional, organism-based
[21] = target: Toll-like receptor 2 (Homo sapiens) (UniProt O60603); experiment: Activation of YFP-tagged TLR2 (unknown origin) expressed in HEK293 cells assessed as induction of IL8 secretion at 8 ug/mL incubated for 16 to 18 hrs by ELISA; format: cell-based
[22] = organism: Mus musculus; experiment: Induction of antigen-specific immunogenicity in C57BL/6 mouse assessed as induction of pulmonary CD4+ T-lymphocyte responses by measuring lung ESAT6-specific CD8+ T-lymphocytes producing IL-17 at 10 ug, in measured 3 weeks after the final vaccination by immunostaining and flow cytometry; format: functional, organism-based
[23] = system: Mus musculus; experiment: Induction of antigen-specific immunogenicity in C57BL/6 mouse assessed as induction of pulmonary CD4+ T-lymphocyte responses by measuring spleen ESAT6-specific CD8+ T-lymphocytes producing TNFalpha at 10 ug, sc measured 3 weeks after the final vaccination by immunostaining and flow cytometry; format: functional, organism-based
[24] = organism: Mus musculus; experiment: Induction of antigen-specific immunogenicity in C57BL/6 mouse assessed as induction of pulmonary CD4+ T-lymphocyte responses by measuring lung ESAT6-specific CD8+ T-lymphocytes producing IFNgamma at 10 ug, in measured 3 weeks after the final vaccination by immunostaining and flow cytometry; format: functional, organism-based

## CCCCCCCCCCCCCCCC(=O)OC[C@H](CSC[C@H](N)C(=O)N[C@@H](CO)C(=O)N[C@@H](CCCCN)C(=O)N[C@@H](CCCCN)C(=O)N[C@@H](CCCCN)C(=O)N[C@@H](CCCCN)C(=O)NCCOCCOCC(=O)N[C@@H](CCSC)C(=O)N[C@H](C(=O)N[C@@H](CCC(=O)O)C(=O)N[C@@H](CCC(N)=O)C(=O)N[C@@H](CCC(N)=O)C(=O)N[C@@H](Cc1c[nH]c2ccccc12)C(=O)N[C@@H](CC(N)=O)C(=O)N[C@@H](Cc1ccccc1)C(=O)N[C@@H](C)C(=O)NCC(=O)N[C@H](C(=O)N[C@@H](CCC(=O)O)C(=O)N[C@@H](C)C(=O)N[C@@H](C)C(=O)N[C@@H](C)C(=O)N[C@@H](CO)C(=O)N[C@@H](C)C(=O)N[C@H](C(=O)N[C@@H](CCC(N)=O)C(=O)NCC(=O)N[C@@H](CCC(N)=O)C(=O)N[C@H](C(=O)N[C@@H](CCSC)C(=O)N[C@@H](Cc1ccc(O)cc1)C(=O)N[C@@H](CC(N)=O)C(=O)N[C@@H](Cc1ccc(O)cc1)C(=O)N1CCC[C@H]1C(=O)N[C@@H](C)C(=O)N[C@@H](CCSC)C(=O)O)[C@@H](C)CC)[C@@H](C)CC)[C@@H](C)CC)[C@@H](C)O)OC(=O)CCCCCCCCCCCCCCC
[1]
  Activity: Active
[2]
  Activity: Active
[3]
  Activity: Active
[4]
  Activity: Active
[5]
  Activity: Active
[6]
  Activity: inactive
[7]
  Activity: inactive
[8]
  Activity: inactive
[9]
  Activity: Active
[10]
  Activity: Active
[11]
  Activity: Active
[12]
  Activity: inactive
[13]
  Activity: Active
[14]
  Activity: inactive
[15]
  Activity: inactive
[16]
  Activity: Active
[17]
  Activity: Active

## H-QIMYNYPAM-OH
[18]
  Activity: inactive
[19]
  Activity: Active
[20]
  Activity: inactive
[21]
  Activity: inactive
[22]
  Activity: inactive
[23]
  Activity: Active
[24]
  Activity: inactive
